Measurements reported in patent US7772263B2, “Compounds for the treatment of inflammatory disorders” (Schering Corporation, priority 2006, dated 2010).

target: T1, purified catalytic domain of recombinant human TACE (rhTACEc) (Homo sapiens, UniProt P78536, N452Q/S266A); assay: TACE kinetic assay, cleavage of internally quenched fluorescent peptide substrate SPDL-3; format: biochemical; conditions: TACE inhibition, Table 1001; read-out: Ki Rating
T1 construct: rhTACEc, Residue 215 to 477 with two mutation (S266A and N4520) and a 6×His tail; 6xHis (C); made in house; host or cells: baculovirus/Hi5 insect cells
T1 sequence (P78536 215-477 S266A/N452Q limits assumed): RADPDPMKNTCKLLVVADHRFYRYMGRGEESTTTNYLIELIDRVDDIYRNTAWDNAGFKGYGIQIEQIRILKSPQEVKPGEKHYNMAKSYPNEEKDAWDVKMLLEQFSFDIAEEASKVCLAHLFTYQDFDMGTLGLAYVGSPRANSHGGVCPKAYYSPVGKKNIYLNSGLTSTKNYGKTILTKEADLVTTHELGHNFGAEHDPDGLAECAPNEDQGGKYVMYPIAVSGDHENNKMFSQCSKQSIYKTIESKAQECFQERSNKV

Ki, 25 to 100 nM:
COc1ccc2c(c1)C(=O)N(C[C@]1(C#Cc3cccc(C(C)C)c3)NC(=O)NC1=O)C2 [Compound 967]

Ki, < 5 nM:
COc1ccc2c(c1)C(=O)N(C[C@@]1(C#Cc3ccc(CN4CCCC4)nc3)NC(=O)NC1=O)C2 [Compound 413D], COc1ccc2c(c1)C(=O)N(C[C@@]1(C#Cc3c(C)nn(C)c3C)NC(=O)NC1=O)C2 [Compound 457], COc1ccc2c(c1)C(=O)N(C[C@@]1(C#Cc3cc(F)cc(F)c3OC)NC(=O)NC1=O)C2 [Compound 908], COc1ccc2c(c1)C(=O)N(C[C@@]1(C#Cc3cnc(O)cc3C)NC(=O)NC1=O)C2 [Compound 555], COc1ccc2c(c1)C(=O)N(C[C@@]1(C#Cc3ccc4nccn4c3)NC(=O)NC1=O)C2 [Compound 460], COc1ccc2c(c1)C(=O)N(C[C@@]1(C#Cc3ccc(C#N)c(F)c3)NC(=O)NC1=O)C2 [Compound 939], COc1ccc2c(c1)C(=O)N(C[C@@]1(C#Cc3cnc4[nH]ccc4c3)NC(=O)NC1=O)C2 [Compound 949], COc1ccc2c(c1)C(=O)N(C[C@@]1(C#Cc3ccc4cnn(C)c4c3)NC(=O)NC1=O)C2 [Compound 423], COc1ccc2c(c1)C(=O)N(C[C@@]1(C#Cc3ccc(C)nn3)NC(=O)NC1=O)C2 [Compound 523], COc1ccc2c(c1)C(=O)N(C[C@@]1(C#Cc3cc(F)cc(Cl)c3)NC(=O)NC1=O)C2 [Compound 456], COc1ccc2c(c1)C(=O)N(C[C@@]1(C#Cc3cc(F)ccc3C)NC(=O)NC1=O)C2 [Compound 498], COc1ccc2c(c1)C(=O)N(C[C@@]1(C#Cc3ccc(OC)c(F)c3)NC(=O)NC1=O)C2 [Compound 907], COc1ccc2c(c1)C(=O)N(C[C@@]1(C#Cc3ccc(F)cc3)NC(=O)NC1=O)C2 [Compound 411], COc1ccc2c(c1)C(=O)N(C[C@@]1(C#Cc3cnc(C)s3)NC(=O)NC1=O)C2 [Compound 471], COc1ccc2c(c1)C(=O)N(C[C@@]1(C#Cc3ccc(=O)[nH]c3)NC(=O)NC1=O)C2 [Compound 536], COc1ccc2c(c1)C(=O)N(C[C@@]1(C#Cc3cc(F)cc(C#N)c3)NC(=O)NC1=O)C2 [Compound 458], COc1ccc2c(c1)C(=O)N(C[C@@]1(C#Cc3cnc4ccccc4c3)NC(=O)NC1=O)C2 [Compound 443], COc1ccc2c(c1)C(=O)N(C[C@@]1(C#Cc3cncc(-n4cccn4)c3)NC(=O)NC1=O)C2 [Compound 482B], COc1ccc2c(c1)C(=O)N(C[C@@]1(C#Cc3ccc(OC(F)F)cc3)NC(=O)NC1=O)C2 [Compound 937], CNC(=O)c1ccc2cncc(C#C[C@]3(CN4Cc5ccc(OC)cc5C4=O)NC(=O)NC3=O)c2n1 [Compound 958], COc1ccc2c(c1)C(=O)N(CC1(C#Cc3cnn(C)c3)NC(=O)NC1=O)C2 (stereo not drawn) [Compound 312B], COc1ccc2c(c1)C(=O)N(C[C@@]1(C#Cc3ccc(C4CC4)nc3)NC(=O)NC1=O)C2 [Compound 472], COc1ccc2c(c1)C(=O)N(C[C@@]1(C#Cc3ccc(F)c(Cl)c3)NC(=O)NC1=O)C2 [Compound 510], COc1ccc2c(c1)C(=O)N(C[C@@]1(C#Cc3ccc4nc(C)ccc4c3)NC(=O)NC1=O)C2 [Compound 422], COc1ccc2c(c1)C(=O)N(C[C@@]1(C#Cc3c(N)ccc4scnc34)NC(=O)NC1=O)C2 [Compound 912], COc1ccc2c(c1)C(=O)N(C[C@@]1(C#Cc3cccnc3C)NC(=O)NC1=O)C2 [Compound 1003], COc1ccc2c(c1)C(=O)N(CC1(C#Cc3ccc4ncsc4c3)NC(=O)NC1=O)C2 (stereo not drawn) [Compound 963], COc1ccc2c(c1)C(=O)N(C[C@@]1(C#Cc3ccc4nc(C(F)(F)F)n(C)c4c3)NC(=O)NC1=O)C2 [Compound 525], O=C1NC(=O)[C@@](C#Cc2cc(F)cc(F)c2)(CN2Cc3ccc(OC(F)F)cc3C2=O)N1 [Compound 922], COc1ccc2c(c1)C(=O)N(C[C@@]1(C#Cc3ccc[n+]([O-])c3)NC(=O)NC1=O)C2 [Compound 539], COc1ccc2c(c1)C(=O)N(C[C@@]1(C#Cc3cncc4ccc(C(=O)O)nc34)NC(=O)NC1=O)C2 [Compound 959], COc1ccc2c(c1)C(=O)N(C[C@@]1(C#Cc3cnc(N)nc3)NC(=O)NC1=O)C2 [Compound 453], COc1ccc2c(c1)C(=O)N(C[C@@]1(C#Cc3ccc(C(=O)O)o3)NC(=O)NC1=O)C2 [Compound 917], COc1ccc2c(c1)C(=O)N(C[C@@]1(C#Cc3cnc4nc(O)ccc4c3)NC(=O)NC1=O)C2 [Compound 942], COc1ccc2c(c1)C(=O)N(C[C@@]1(C#Cc3cccc(F)c3C)NC(=O)NC1=O)C2 [Compound 437]

Ki, 5 to 25 nM:
COc1ccc2c(c1)C(=O)N(C[C@@]1(C#Cc3ccc(C4(N)CC4)nc3)NC(=O)NC1=O)C2 [Compound 414B]

same assay, conditions: TACE; class letters A-D; read-out: Ki Rating

Ki, < 5 nM:
COc1ccc2c(c1)C(=O)N(C[C@@]1(C#Cc3ccc(C(C)O)s3)NC(=O)NC1=O)C2 (stereo partly drawn) [Compound 1061], COc1ccc2c(c1)C(=O)N(C[C@@]1(C#Cc3ncnc4[nH]ccc34)NC(=O)NC1=O)C2 [Compound 1220E], COc1ccc2c(c1)C(=O)N(C[C@@]1(C#Cc3ccc(C)[nH]c3=O)NC(=O)NC1=O)C2 [Compound 1578], COc1ccc2c(c1)C(=O)N(C[C@@]1(C#Cc3cccc(COCC4CC4)c3)NC(=O)NC1=O)C2 [Compound 1059], COc1ccc2c(c1)CCN(CC1(C#Cc3cccnc3)NC(=O)NC1=O)C2=O (stereo not drawn) [Compound 1087], COc1ccc2c(c1)C(=O)N(C[C@@]1(C#Cc3n[nH]c4ccccc34)NC(=O)NC1=O)C2 [Compound 1506], COc1ccc2c(c1)C(=O)N(C[C@@]1(C#Cc3ccc(Cl)c(C(=O)NCCN(C)C)c3)NC(=O)NC1=O)C2 [Compound 1143], COc1ccc2c(c1)C(=O)N(C[C@@]1(C#Cc3ccc(N)c(OC(F)(F)F)c3)NC(=O)NC1=O)C2 [Compound 1216], COc1ccc2c(c1)C(=O)N(C[C@@]1(C#Cc3cncc(-c4nnn(C)n4)c3)NC(=O)NC1=O)C2 [Compound 1215], COc1ccc2c(c1)C(=O)N(C[C@@]1(C#Cc3cccc4[nH]ccc34)NC(=O)NC1=O)C2 [Compound 1132], COc1ccc2c(c1)C(=O)N(C[C@@]1(C#Cc3ccc(C#N)s3)NC(=O)NC1=O)C2 [Compound 1064], COc1ccc2c(c1)C(=O)N(C[C@@]1(C#Cc3ccc4[nH]nnc4c3)NC(=O)NC1=O)C2 [Compound 1522], COc1ccc2c(c1)C(=O)N(C[C@@]1(C#Cc3ccc(F)nc3)NC(=O)NC1=O)C2 [Compound 1563], COc1ccc2c(c1)C(=O)N(C[C@@]1(C#Cc3nc4ncnc(N)c4n3C)NC(=O)NC1=O)C2 [Compound 1208], COc1ccc2c(c1)C(=O)N(C[C@@]1(C#Cc3cnc4ccccn34)NC(=O)NC1=O)C2 [Compound 1503], COC(=O)c1ccc(C#C[C@]2(CN3Cc4ccc(OC)cc4C3=O)NC(=O)NC2=O)cn1 [Compound 1514], CC#CCOc1ccc2c(c1)C(=O)N(C[C@@]1(C#Cc3ccc4cn(C)nc4c3)NC(=O)NC1=O)C2 [Compound 1533], O=C1NC(=O)[C@@](C#Cc2cccc(F)c2)(CN2Cc3ccc(F)cc3C2=O)N1 [Compound 1041], CO/N=C(/C)c1ccc(C#C[C@]2(CN3Cc4ccc(OC)cc4C3=O)NC(=O)NC2=O)s1 [Compound 1082], COc1ccc2c(c1)C(=O)N(C[C@@]1(C#Cc3cccc(CO)c3)NC(=O)NC1=O)C2 [Compound 1048], COc1ccc2c(c1)C(=O)N(C[C@@]1(C#Cc3ccc(C4(C5CC5)NC(=O)NC4=O)cc3)NC(=O)NC1=O)C2 (stereo partly drawn) [Compound 1577], COc1ccc2c(c1)C(=O)N(C[C@@]1(C#Cc3ccc(C(=O)NS(=O)(=O)C4CC4)cc3)NC(=O)NC1=O)C2 [Compound 1570], COc1ccc2c(c1)C(=O)N(C[C@@]1(C#Cc3ccc4[nH]cnc4c3)NC(=O)NC1=O)C2 [Compound 1012], COc1ccc2c(c1)C(=O)N(C[C@@]1(C#Cc3cn(C)c(=O)n(C)c3=O)NC(=O)NC1=O)C2 [Compound 1204], COc1ccc2c(c1)C(=O)N(C[C@@]1(C#Cc3ccc(C(C)=NO)nc3)NC(=O)NC1=O)C2 [Compound 1575], COc1ccc2c(c1)C(=O)N(C[C@@]1(C#Cc3csc(CN)c3)NC(=O)NC1=O)C2 [Compound 1070], COc1ccc2c(c1)C(=O)N(C[C@@]1(C#Cc3ccc4c(C=NO)c[nH]c4c3)NC(=O)NC1=O)C2 [Compound 1554]

Ki, > 100 nM:
COc1ccc2c(c1)C(=O)N(C[C@]1(C#Cc3ccc(SC(F)(F)F)cc3)NC(=O)NC1=O)C2 [Compound 1036], CNCc1cc(C#C[C@@]2(CN3Cc4ccc(OC)cc4C3=O)NC(=O)NC2=O)cs1 [Compound 1074], COc1ccc2c(c1)C(=O)N(C[C@]1(C#Cc3ccc(C(C)N)cc3)NC(=O)NC1=O)C2 (stereo partly drawn) [Compound 1073], COc1ccc2c(c1)C(=O)N(C[C@]1(C#Cc3cnc4[nH]c(C)nc4c3C)NC(=O)NC1=O)C2 [Compound 1094]

Ki, 25 to 100 nM:
O=C1NC(=O)[C@](C#Cc2cccc(F)c2)(CN2Cc3ccc(F)cc3C2=O)N1 [Compound 1051]

Ki, 5 to 25 nM:
COc1ccc2c(c1)C(=O)N(C[C@@]1(C#Cc3ccc(S(=O)(=O)C(F)(F)F)cc3)NC(=O)NC1=O)C2 [Compound 1039]

same assay, conditions: rhTACEc 70 pM, 30 μM SPDL-3, 90 min pre-incubation at 25° C.; read-out: Ki (nM), TACE inhibitory activity

Ki, 0.11 nM:
COc1ccc2c(c1)C(=O)N(C[C@@]1(C#Cc3cccnc3C)NC(=O)NC1=O)C2 [Compound 1003]

Ki, 1.8 nM:
COc1ccc2c(c1)C(=O)N(C[C@@]1(C#Cc3cccc4[nH]ccc34)NC(=O)NC1=O)C2 [Compound 1132]
